How the values were obtained:
[1] = species on record: Cavia porcellus; assay: Relative binding affinity to guinea pig progesterone receptor
[2] = molecular target: T1, Progesterone receptor (Homo sapiens) (UniProt P06401)
T1 sequence (whole entry): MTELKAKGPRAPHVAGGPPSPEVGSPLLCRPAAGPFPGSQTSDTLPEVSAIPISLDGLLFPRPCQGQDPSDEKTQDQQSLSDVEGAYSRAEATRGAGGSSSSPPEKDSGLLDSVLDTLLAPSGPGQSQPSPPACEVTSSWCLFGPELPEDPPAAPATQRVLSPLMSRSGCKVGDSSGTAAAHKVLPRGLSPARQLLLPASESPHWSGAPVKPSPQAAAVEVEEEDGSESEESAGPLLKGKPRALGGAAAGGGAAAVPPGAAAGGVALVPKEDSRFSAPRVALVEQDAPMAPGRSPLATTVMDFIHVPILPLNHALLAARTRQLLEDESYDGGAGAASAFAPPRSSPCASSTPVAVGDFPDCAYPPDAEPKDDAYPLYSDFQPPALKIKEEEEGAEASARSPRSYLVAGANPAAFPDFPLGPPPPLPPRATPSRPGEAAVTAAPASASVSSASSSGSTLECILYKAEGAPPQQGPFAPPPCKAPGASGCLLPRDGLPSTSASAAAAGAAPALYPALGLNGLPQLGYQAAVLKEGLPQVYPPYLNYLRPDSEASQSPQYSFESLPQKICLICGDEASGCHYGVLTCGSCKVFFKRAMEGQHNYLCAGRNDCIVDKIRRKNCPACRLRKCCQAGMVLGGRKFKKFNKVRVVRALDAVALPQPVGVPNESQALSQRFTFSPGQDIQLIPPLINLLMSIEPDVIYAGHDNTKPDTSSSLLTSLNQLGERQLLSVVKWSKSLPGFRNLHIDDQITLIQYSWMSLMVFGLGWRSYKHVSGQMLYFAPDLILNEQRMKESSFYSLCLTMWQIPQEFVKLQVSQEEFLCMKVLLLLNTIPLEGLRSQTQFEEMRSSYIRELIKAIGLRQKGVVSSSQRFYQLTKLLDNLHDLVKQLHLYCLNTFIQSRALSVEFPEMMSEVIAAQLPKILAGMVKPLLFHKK

[3] = molecular target: T2, Progesterone receptor (Ovis aries) (UniProt Q28590); assay: Relative binding affinity to sheep progesterone receptor
T2 sequence (whole entry): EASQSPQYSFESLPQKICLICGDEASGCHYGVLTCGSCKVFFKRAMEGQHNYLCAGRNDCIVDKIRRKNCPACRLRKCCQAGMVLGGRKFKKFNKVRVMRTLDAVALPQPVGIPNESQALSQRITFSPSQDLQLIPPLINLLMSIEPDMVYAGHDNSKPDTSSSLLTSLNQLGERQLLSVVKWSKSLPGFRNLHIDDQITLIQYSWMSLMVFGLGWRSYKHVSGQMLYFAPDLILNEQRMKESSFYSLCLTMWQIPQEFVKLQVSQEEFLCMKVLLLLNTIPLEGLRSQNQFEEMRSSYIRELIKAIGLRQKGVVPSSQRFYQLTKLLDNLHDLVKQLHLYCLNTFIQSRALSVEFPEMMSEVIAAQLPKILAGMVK

[4] = molecular target: T3, Progesterone receptor (Oryctolagus cuniculus) (UniProt P06186); assay: Relative binding affinity to rabbit progesterone receptor
T3 sequence (whole entry): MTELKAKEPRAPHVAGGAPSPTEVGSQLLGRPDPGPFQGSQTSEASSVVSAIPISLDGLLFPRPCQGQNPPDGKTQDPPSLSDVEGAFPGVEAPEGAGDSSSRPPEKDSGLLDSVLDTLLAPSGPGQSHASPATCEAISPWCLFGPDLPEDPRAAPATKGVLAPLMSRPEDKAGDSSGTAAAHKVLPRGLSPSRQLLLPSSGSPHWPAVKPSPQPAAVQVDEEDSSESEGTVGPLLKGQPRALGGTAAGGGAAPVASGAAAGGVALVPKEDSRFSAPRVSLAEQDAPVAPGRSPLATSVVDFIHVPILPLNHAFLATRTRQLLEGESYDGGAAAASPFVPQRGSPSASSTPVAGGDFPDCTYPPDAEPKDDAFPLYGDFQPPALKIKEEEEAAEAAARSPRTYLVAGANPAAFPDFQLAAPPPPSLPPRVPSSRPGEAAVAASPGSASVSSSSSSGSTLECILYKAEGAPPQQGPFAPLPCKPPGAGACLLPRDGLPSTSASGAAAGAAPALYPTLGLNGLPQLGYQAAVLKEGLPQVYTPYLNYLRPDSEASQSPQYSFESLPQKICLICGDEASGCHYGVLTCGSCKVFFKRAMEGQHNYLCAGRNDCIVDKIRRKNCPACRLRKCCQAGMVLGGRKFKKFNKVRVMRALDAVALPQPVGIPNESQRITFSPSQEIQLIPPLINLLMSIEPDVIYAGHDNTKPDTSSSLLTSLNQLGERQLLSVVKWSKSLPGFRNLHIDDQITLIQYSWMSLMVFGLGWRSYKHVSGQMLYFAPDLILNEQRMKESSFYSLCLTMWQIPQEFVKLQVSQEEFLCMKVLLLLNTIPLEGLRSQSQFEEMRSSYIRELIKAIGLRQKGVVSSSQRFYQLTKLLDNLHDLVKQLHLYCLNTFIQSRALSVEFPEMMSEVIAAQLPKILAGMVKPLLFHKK

SMILES	log(RBA) [1]	log(RBA) [2]	log(RBA) [3]	log(RBA) [4]
CC(=O)O[C@]1(C(C)=O)CC[C@H]2[C@@H]3C=C(C)C4=CC(=O)CC[C@]4(C)[C@H]3CC[C@@]21C	-0.3	1.94	1.51	2
C#C[C@]1(O)CC[C@H]2[C@@H]3CC[C@@H]4C[C@@H](O)CC[C@@H]4[C@H]3CC[C@@]21C	-1.09	-0.52	-0.7	-1
C#C[C@]1(OC(C)=O)CC[C@H]2[C@@H]3CCC4=CCCC[C@@H]4[C@H]3CC[C@@]21C	-2	-0.7	-1	0
CC(=O)O[C@]1(C(C)=O)CC[C@H]2[C@@H]3C=C(Cl)C4=CC(=O)CC[C@]4(C)[C@H]3CC[C@@]21C	-0.097	2.08	1.78	2.16
CCC(=O)[C@@]1(C)CC[C@H]2[C@@H]3CCC4=CC(=O)CCC4=C3CC[C@@]21C	–	–	–	2.48
C#C[C@]1(O)CC[C@H]2[C@@H]3CCC4=CCCC[C@@H]4[C@H]3CC[C@@]21C	-0.52	0.7	0.602	1.11
CC(=O)OCC(=O)[C@H]1CC[C@H]2[C@@H]3CCC4=CC(=O)CC[C@]4(C)[C@H]3CC[C@]12C	1.34	1	1	1.69
C#C[C@]1(O)CC[C@H]2[C@@H]3CCC4=C[C@@H](O)CC[C@@H]4[C@H]3CC[C@@]21C	-0.22	1.4	1	1.3
C#C[C@]1(O)CC[C@H]2[C@@H]3CCC4=C(CCC(=O)C4)[C@H]3CC[C@@]21C	3	1.34	0.845	1.56
CC(=O)[C@H]1CC[C@H]2[C@@H]3CCC4=CC(=O)CCC4=C3C=C[C@]12C	–	–	–	1.3
C[C@]12CC[C@H]3[C@@H](CCC4=CC(=O)CC[C@@H]43)[C@@H]1CC[C@@H]2O	1.6	1.14	1	1
CC(=O)[C@H]1CC[C@H]2[C@@H]3[C@H](C)CC4=CC(=O)CC[C@]4(C)[C@H]3CC[C@]12C	1.67	1.43	1.32	1.61
CC(=O)[C@H]1CC[C@H]2[C@@H]3CCC4=CC(=O)CCC4=C3CC[C@]12C	–	–	–	2
CC(=O)[C@H]1CC[C@H]2[C@@H]3CCC4=CC(=O)C=C[C@]4(C)[C@H]3CC[C@]12C	1.64	1.48	1.2	1.3
C[C@]12CCC(=O)C=C1CC[C@@H]1[C@@H]2[C@@H](O)C[C@@]2(C)[C@H]1CC[C@]2(O)C(=O)CO	-1	-1	-1.3	-1
C[C@H](O)[C@H]1CC[C@H]2[C@@H]3CCC4=CC(=O)CC[C@]4(C)[C@H]3CC[C@]12C	0.6	1	0.7	0.778
CC(=O)[C@H]1CC[C@H]2[C@@H]3CC[C@H]4CC(=O)CC[C@]4(C)[C@H]3CC[C@]12C	1.4	1.48	1.48	1.74
CC(=O)O[C@]1(C(C)=O)CC[C@H]2[C@@H]3CCC4=C(O)C(=O)CC[C@]4(C)[C@H]3CC[C@@]21C	-0.4	1.62	1.2	1.77
C#C[C@]1(O)CC[C@H]2[C@@H]3CCC4=CC(=O)CCC4=C3C=C[C@@]21CC	–	–	–	1.3

SMILES	log(RBA) [1]	log(RBA) [2]	log(RBA) [3]	log(RBA) [4]
CC(=O)[C@H]1CC[C@H]2[C@@H]3CCC4=CC(=O)CC[C@]4(C)[C@H]3CC[C@]12C	2	2	2	2
C#C[C@]1(O)CC[C@H]2[C@H]3[C@H](CC[C@@]21C)[C@H]1CCCC=C1C[C@H]3C	-0.7	0.3	0.301	0.954
CC(=O)[C@@]1(C)CC[C@H]2[C@@H]3CCC4=CC(=O)CC[C@@H]4[C@H]3CC[C@@]21C	–	–	–	2.7
CC[C@@H]1C[C@H]2[C@@H]3CCC4=CC(=O)CC[C@@H]4[C@H]3CC[C@]2(C)[C@H]1C(=O)CO	1.4	2.16	1.98	2.44
CC(=O)[C@H]1CC[C@H]2[C@@H]3CCC4=CC(=O)CC[C@@H]4[C@H]3CC[C@]12C	2.06	2.11	2.13	2.41
CC(=O)[C@@]1(C)CC[C@H]2[C@@H]3CCC4=CC(=O)CCC4=C3C=C[C@@]21C	–	–	–	1.74
CC(=O)[C@H]1CC[C@H]2[C@@H]3CCC4=CC(=O)CC[C@]4(C)[C@H]3[C@H](O)C[C@]12C	-0.097	0.48	-0.15	0.301
C[C@@H](O)[C@H]1CC[C@H]2[C@@H]3CCC4=CC(=O)CC[C@]4(C)[C@H]3CC[C@]12C	0	0.3	0	1.01
CC[C@@H]1C[C@H]2[C@@H]3CCC4=CC(=O)CC[C@]4(C)[C@H]3CC[C@]2(C)[C@H]1C(C)=O	1.08	1.98	1.87	1.98
CCCCCC(=O)O[C@]1(C(C)=O)CC[C@H]2[C@@H]3CCC4=CC(=O)CC[C@]4(C)[C@H]3CC[C@@]21C	–	1.88	–	1.88
CC(=O)O[C@]1(C(C)=O)CC[C@H]2[C@@H]3C[C@H](C)C4=CC(=O)CC[C@]4(C)[C@H]3CC[C@@]21C	1.11	2.29	1.86	2
C#C[C@]1(O)CC[C@H]2[C@@H]3CCC4=CC(=O)CCC4=C3C=C[C@@]21CCC	–	–	–	0.7
CC(=O)[C@H]1CC[C@H]2[C@@H]3CCC4=CC(=O)CC[C@]4(C)[C@H]3CC(=O)[C@]12C	-0.52	-0.69	-1	-0.221
CC(=O)[C@H]1CC[C@H]2[C@@H]3CC=C4C[C@@H](O)CC[C@]4(C)[C@H]3CC[C@]12C	-0.52	-0.69	–	-0.301
C[C@]12CC[C@H]3[C@@H](CCC4=CC(=O)CC[C@@]43C)[C@@H]1CC[C@@H]2O	0	–	0	-0.22
C#C[C@]1(O)CC[C@H]2[C@@H]3CCC4=CC(=O)CCC4=C3C=C[C@@]21C	–	–	–	1.3
C[C@]12CCC(=O)C[C@@H]1CC[C@@H]1[C@@H]2CC[C@]2(C)[C@@H](O)CC[C@@H]12	–	0.3	0	–
C#C[C@]1(O)CC[C@H]2[C@@H]3CCC4=CC(=O)CC[C@@H]4[C@H]3CC[C@@]21CCC	–	–	–	1.54
CC(=O)[C@@]1(C)CC[C@H]2[C@@H]3CCC4=CC(=O)CCC4=C3CC[C@@]21C	–	–	–	2.3

— ChEMBL document CHEMBL3272135, “Quantitative relationships between steroid structure and binding to putative progesterone receptors” (J Med Chem, 1977)
